What was measured:
[1] = system: A549, H596, MCF-7, MDA-MB-231, MDA-MB-468, HCT116 and SW480 cells; experiment: Caspase-3 colorimetric activity assay (apoptosis), mutant vs wild-type p53 cells; format: cell-based, Human; settings: PEITC 24 h; lung, breast and colon cell line sets
Experimental: Caspase-3 activity was measured by detection of the cleavage of a colorimetric caspase-3 substrate, N-acetyl-Asp-Glu-Val-Asp (DEVD)-p-nitroaniline, using an assay kit (R&D Systems, Inc., Minneapolis, Minn.). The assay was performed according to the instructions of the manufacturer. In brief, cells were treated with drugs for 24 h. The cells were collected and lysed in ice-cold lysis buffer provided by the manufacturer. The same amount of protein extracts (100-200 μg) were incubated in a reaction buffer containing N-acetyl-DEVD-p-nitroaniline at 37 gC for 2-4 h. The levels of the resulting proteolytic fragment p-nitroanilide were measured as optical density at 405 nm with a plate reader. The data represent the mean±SD of three independent experiments.
The role of p53 in the induction of apoptosis by ITCs is not well established and likely to be cell-specific. […] To examine this possibility, we assessed the cytotoxicity induced by PEITC in cancer cells containing either wild-type or mutant p53. Three sets of cell lines from lung, breast, and colon were used: A549 (wild-type p53) and H596 (mutant p53) lung cancer cells, MCF-7 (wild-type p53) and MDA-MB-231 and MDA-MB-468 (mutant p53) breast cancer cells, and HCT116 (wild-type p53) and SW480 (mutant p53) colon cancer cells. After treating with PEITC for 24 h, apoptosis was determined by caspase-3 activity assay.

mda-mb-231 (R280K) cells = experiment: Cell proliferation, mda-mb-231; format: cell-based, Human
Experimental: (§1) Next, the effect of PEITC exposure on tumor growth of the tumor cell lines expressing mutant or the WT p53 protein was examined. […] This hypersensitivity to PEITC being mediated through mutant p53 was next examined. The effect of PEITC on mda-mb-231 cells depleted of mutant p53 by >90% was compared to non-specific (NS) siRNA transfected cells as a control (FIG. 9B). […] Further the effect of PEITC treatment on the level of mutant p53 protein at lower doses was analyzed by western blot analysis (FIG. 9D).

DU145 cells = experiment: Apoptosis and cell cycle progression, DU145; format: cell-based, Human; settings: DU145, 4 uM PEITC
Text: The negative effects of PEITC on cell proliferation might affect the apoptotic potential of the cells and the cell cycle progression.

HOP-92 (R175L) cell line = experiment: Cell proliferation, HOP-92; format: cell-based; settings: Homo sapiens, 250 nM PEITC
Experimental: as §1

[2] = system: mutant p53 in MDA-MB-231, MDA-MB-468, DU145, SW480, and SCC-4 cells; experiment: Immunoblot of mutant p53 in other tumor cells with mutant p53; format: cell-based, Human
Text: (§2) Human H596, A549, HCT116, MDA-MB-231, MDA-MB-468, MCF-7, DU145, MCF-10A, SW480, and SCC-4 cells were obtained from ATCC (Manassas, Va.). H1299-175H cells were kindly provided by Dr. Maria Laura Avantaggiati (Georgetown University). Cells were maintained in DMEM or RPMI-1640 medium supplemented with 10% FBS (Hyclone). DMSO, PEITC, BITC, SFN, AITC, NMPEA, and monochlorobimane were purchased from Sigma-Aldrich (St. Louis, Mo.). 2,2-Diphenylethyl ITC, 4-phenoxybenzyl ITC, 4-methoxybenzyl ITC, 4-chlorobenzyl ITC, Dα-methylbenzyl ITC, trityl ITC, and 3-phenylpropyl ITC were purchased from Trans World Chemicals (Rockville, Md.). Erucin and 4-phenylbutyl ITC were from LKT Laboratories, Inc. (St. Paul, Minn.). […] All the compounds are with purities ≧95% as determined by gas-liquid chromatography or HPLC. […]
(§3) Whole cell lysates were prepared in lysis buffer (20 mM HEPES, pH 7.4, 2 mM EGTA, 50 mM β-glycerol phosphate, 1% Triton X-100, 10% glycerol, 1 mM DTT, 1 mM PMSF, […], 1 mM Na3-VO4, and 5 mM NaF). […] Proteins were detected using enhanced chemiluminescence (ECL) reagents (GE Healthcare). […]

[3] = molecular target: T1, wild-type p53 in A549, HCT116, MCF-7 and MCF-10A cells (Homo sapiens, UniProt P04637); experiment: Immunoblot of wild-type p53 in cells with wild-type p53; format: cell-based
T1 construct: host or cells: A549, HCT116, MCF-7, MCF-10A
Text: as §2, §3

T1 sequence (P04637 whole entry): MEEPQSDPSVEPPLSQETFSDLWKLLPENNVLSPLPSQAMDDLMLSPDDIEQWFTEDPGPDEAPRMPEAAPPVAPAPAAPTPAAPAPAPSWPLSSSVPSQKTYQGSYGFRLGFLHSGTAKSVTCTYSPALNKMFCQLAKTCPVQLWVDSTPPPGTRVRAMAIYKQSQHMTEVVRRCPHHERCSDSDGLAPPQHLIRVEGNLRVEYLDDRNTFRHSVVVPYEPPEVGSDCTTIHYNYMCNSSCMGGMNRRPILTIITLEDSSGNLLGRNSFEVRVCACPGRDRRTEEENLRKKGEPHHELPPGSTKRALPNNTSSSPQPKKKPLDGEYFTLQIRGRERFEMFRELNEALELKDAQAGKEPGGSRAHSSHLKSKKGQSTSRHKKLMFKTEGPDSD

S=C=NCCc1ccccc1 [PEITC, phenethyl isothiocyanate]
sensitivity of mutant p53 cancer cells vs wild-type cells to PEITC-induced apoptosis (caspase-3 activity) [1]: significantly more sensitive
inhibition at 1 µM (mda-mb-231 (R280K) cells; Homo sapiens, mda-mb-231 (R280K), 1 μM PEITC): 55%
sensitivity to cell growth inhibition (mda-mb-231 (R280K) cells; control (NS) siRNA transfected mda-mb-231 cells): highly sensitive
sensitivity to cell growth inhibition (mda-mb-231 (R280K) cells; mda-mb-231 cells depleted of mutant p53 by >90% (siRNA)): significant reduction in the sensitivity
apoptosis compared to DMSO treated cells (DU145 cells): two fold increase
cell cycle progression (DU145 cells): S-phase arrest
inhibition at 0.25 µM (HOP-92 (R175L) cell line): 40%
mutant p53 level in five cell lines ([2]; 10 or 15 μM PEITC, time-dependent): depleted mutant p53 in all five cell lines
concentration causing marked reduction in the level of mutant p53 protein ([2]; variety of tumor cell lines): ≥ 10 µM
wild-type p53 expression ([3]; 15 or 20 μM PEITC for 2, 4, 8, and 24 h): did not decrease
level of wild type (WT) p53 protein ([3]; PEITC exposure, summary of previous experiments): no significant decrease

Source: patent publication US20130158111A1, “Compositions and Methods for Depleting Mutant p53” (Georgetown University, priority 2011, published 2013)
